Experimental data as given in ChEMBL document CHEMBL4130508, “Structural Sequencing of Oligopeptides Aided by 1H Iterative Full-Spin Analysis” (2017).
≈ marks a conversion by molar mass, not a printed value. Numbered stars: 1 amine (or outer) side, 2 acyl side, 3 side chain; on linkers, the order of the positions; unused ones are H or OH. Bridge positions count the residues as written; N and C are the ends. Square brackets hold non-standard residues; d marks the D form. Peptide text beside a SMILES is read from it. * marks the point of attachment. Phe(3R-OH) = O=C([C@@H](N[*:1])[C@H](O[*:3])c1ccccc1)[*:2]; NMeTrp(4-OMe) = CN[C@@H](Cc1c[nH]c2cccc(OC)c12)C(=O)O; NMeaIle = CC[C@@H](C)[C@H](NC)C(=O)O; NMe2Val = CC(C)[C@@H](C(=O)*)N(C)C; NMeT = CN[C@H](C(=O)O)[C@@H](C)O; NMeL = CN[C@@H](CC(C)C)C(=O)O; NMeV = CN[C@H](C(=O)O)C(C)C

Tested on: Mycobacterium tuberculosis
Assay: Antimycobacterial activity against Mycobacterium tuberculosis H37Rv ATCC 27294 by Alamar blue assay
Format: functional

| SMILES | MIC [µg/mL] |
| --- | --- |
| CC[C@@H](C)[C@@H](C(=O)N[C@@H]1C(=O)N(C)[C@@H]([C@@H](C)O)C(=O)N[C@@H](C(C)C)C(=O)N(C)[C@@H](CC(C)C)C(=O)N[C@@H](C(C)C)C(=O)N(C)[C@@H](C(C)C)C(=O)N(C)[C@@H](Cc2c[nH]c3cccc(OC)c23)C(=O)N[C@@H]([C@@H](C)CC)C(=O)N[C@@H]([C@H](O)c2ccccc2)C(=O)N[C@@H](C(C)C)C(=O)O[C@@H]1C)N(C)C(=O)[C@@H](NC(=O)[C@H](C(C)C)N(C)C)C(C)C | 0.26 (≈ 0.161 µM) |
| CC[C@@H](C)[C@@H](C(=O)N[C@@H]1C(=O)N(C)[C@@H]([C@@H](C)O)C(=O)N[C@@H]([C@@H](C)CC)C(=O)N(C)[C@@H](CC(C)C)C(=O)N[C@@H](C(C)C)C(=O)N(C)[C@@H](C(C)C)C(=O)N(C)[C@@H](Cc2c[nH]c3cccc(OC)c23)C(=O)N[C@@H](C(C)C)C(=O)N[C@@H]([C@H](O)c2ccccc2)C(=O)N[C@@H](C(C)C)C(=O)O[C@@H]1C)N(C)C(=O)[C@@H](NC(=O)[C@H](C(C)C)N(C)C)C(C)C | 0.26 (≈ 0.161 µM) |
| COc1cccc2[nH]cc(C[C@H]3C(=O)N[C@@H](C(C)C)C(=O)N[C@@H](Cc4ccccc4)C(=O)N[C@@H](C(C)C)C(=O)O[C@H](C)[C@H](NC(=O)[C@H](C(C)C)N(C)C(=O)[C@@H](NC(=O)[C@H](C(C)C)N(C)C)C(C)C)C(=O)N(C)[C@@H]([C@@H](C)O)C(=O)N[C@@H](C(C)C)C(=O)N(C)[C@@H](CC(C)C)C(=O)N[C@@H](C(C)C)C(=O)N(C)[C@@H](C(C)C)C(=O)N3C)c12 (NMe2Val-V[NMeV]T[NMeT]V[NMeL]V[NMeV][NMeTrp(4-OMe)]VFV; ester 3-C) | 0.13 (≈ 0.0828 µM) |
| CC[C@@H](C)[C@@H](C(=O)N[C@@H]1C(=O)N(C)[C@@H]([C@@H](C)O)C(=O)N[C@@H](C(C)C)C(=O)N(C)[C@@H](CC(C)C)C(=O)N[C@@H](C(C)C)C(=O)N(C)[C@@H](C(C)C)C(=O)N(C)[C@@H](Cc2c[nH]c3cccc(OC)c23)C(=O)N[C@@H](C(C)C)C(=O)N[C@@H]([C@H](O)c2ccccc2)C(=O)N[C@@H](C(C)C)C(=O)O[C@@H]1C)N(C)C(=O)[C@@H](NC(=O)[C@H](C(C)C)N(C)C)C(C)C (NMe2Val-V[NMeaIle]T[NMeT]V[NMeL]V[NMeV][NMeTrp(4-OMe)]V[Phe(3R-OH)]V; ester 3-C) | 0.26 (≈ 0.162 µM) |
| CC[C@@H](C)[C@@H](C(=O)N[C@@H]1C(=O)N(C)[C@@H]([C@@H](C)O)C(=O)N[C@@H](C(C)C)C(=O)N(C)[C@@H](CC(C)C)C(=O)N[C@@H](C(C)C)C(=O)N(C)[C@@H](C(C)C)C(=O)N(C)[C@@H](Cc2c[nH]c3cccc(OC)c23)C(=O)N[C@@H](C(C)C)C(=O)N[C@@H]([C@H](O)c2ccccc2)C(=O)N[C@@H]([C@@H](C)CC)C(=O)O[C@@H]1C)N(C)C(=O)[C@@H](NC(=O)[C@H](C(C)C)N(C)C)C(C)C | 0.26 (≈ 0.161 µM) |
| CC[C@@H](C)[C@@H](C(=O)N[C@@H]1C(=O)N(C)[C@@H]([C@@H](C)O)C(=O)N[C@@H](C(C)C)C(=O)N(C)[C@@H](CC(C)C)C(=O)N[C@@H](C(C)C)C(=O)N(C)[C@@H](C(C)C)C(=O)N(C)[C@@H](Cc2c[nH]c3cccc(OC)c23)C(=O)N[C@@H](C(C)C)C(=O)N[C@@H](Cc2ccccc2)C(=O)N[C@@H](C(C)C)C(=O)O[C@@H]1C)N(C)C(=O)[C@@H](NC(=O)[C@H](C(C)C)N(C)C)C(C)C | 0.55 (≈ 0.347 µM) |
| COc1cccc2[nH]cc(C[C@H]3C(=O)N[C@@H](C(C)C)C(=O)N[C@@H]([C@H](O)c4ccccc4)C(=O)N[C@@H](C(C)C)C(=O)O[C@H](C)[C@H](NC(=O)[C@H](C(C)C)N(C)C(=O)[C@@H](NC(=O)[C@H](C(C)C)N(C)C)C(C)C)C(=O)N(C)[C@@H]([C@@H](C)O)C(=O)N[C@@H](C(C)C)C(=O)N(C)[C@@H](CC(C)C)C(=O)N[C@@H](C(C)C)C(=O)N(C)[C@@H](C(C)C)C(=O)N3C)c12 (NMe2Val-V[NMeV]T[NMeT]V[NMeL]V[NMeV][NMeTrp(4-OMe)]V[Phe(3R-OH)]V; ester 3-C) | 0.15 (≈ 0.0946 µM) |
